Test [1] concerns Jurkat cells. Put plainly: CD3ζ chain expression in Jurkat cells on L-arginine depletion or replenishment (Western blot, flow cytometry). Type of test: cell-based. Here is the method: Next, it was tested whether L-arginine depletion altered the expression of the key elements of the T-cell antigen receptor and IL-2 receptor in Jurkat cells. […] The decreased expression of ζ chain was not due to an overall protein degradation since the expression of GAPDH and CD3ε was virtually unchanged over the same period of time. […] The initial decrease in CD3ζ could be seen as early as 24 hours, but continued up to 7 days in culture as compared to its expression in Jurkat cells cultured in C-RPMI that remains unchanged (data not shown).
Reappearance of CD3ζ chain occurred either by adding L-arginine alone at a concentration of 100 μM (FIGS. 4a, dashed line, and 4b, lane 3), or by replacing the TCM with C-RPMI (FIGS. 4a, solid line, and 4b, lane 4). […] The data discussed is representative of at least five experiments in each case.
Background: In western blotting, separated proteins are transferred to a membrane and probed.

For another test, the target named is CAT-1 (Homo sapiens, UniProt P30825). Particulars: read-out: Km for L-Arg; cited from earlier work.
Sequence of CAT-1 (P30825 whole entry): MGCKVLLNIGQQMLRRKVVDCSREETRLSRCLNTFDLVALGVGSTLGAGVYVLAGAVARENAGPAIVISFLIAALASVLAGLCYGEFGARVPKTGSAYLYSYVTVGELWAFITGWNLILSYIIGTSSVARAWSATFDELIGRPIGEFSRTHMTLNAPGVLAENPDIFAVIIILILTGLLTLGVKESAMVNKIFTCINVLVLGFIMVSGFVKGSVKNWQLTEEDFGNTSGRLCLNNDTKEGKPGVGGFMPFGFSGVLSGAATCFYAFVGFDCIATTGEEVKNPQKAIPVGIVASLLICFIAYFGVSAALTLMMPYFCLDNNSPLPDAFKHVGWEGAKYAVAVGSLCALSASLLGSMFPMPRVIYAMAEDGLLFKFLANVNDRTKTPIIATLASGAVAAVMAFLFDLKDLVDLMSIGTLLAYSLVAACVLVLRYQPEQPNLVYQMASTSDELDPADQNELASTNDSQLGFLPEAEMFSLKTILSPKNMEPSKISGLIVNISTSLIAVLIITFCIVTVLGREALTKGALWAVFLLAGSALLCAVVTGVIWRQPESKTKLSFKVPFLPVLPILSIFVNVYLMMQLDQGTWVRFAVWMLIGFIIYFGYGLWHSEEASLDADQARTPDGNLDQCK
Another test relates to purified T-cells. Put plainly: CD3ζ and phospho-CD3ζ expression in stimulated purified T-cells (flow cytometry). Type of test: cell-based, human. Here is the method: Peripheral blood mononuclear cells (PBMC) from normal donors were separated over Ficoll-Paque (Pharmacia Biotech, Uppsala, Sweden). PBMC were enriched over T-cell enrichment columns (R&D Systems, Minneapolis, Minn.). After 10 min. of incubation, the columns were washed and the obtained enriched T-cells were counted and tested for surface markers by flow cytometry. […].
Tissue culture dishes (100 mm) (Corning, N.Y.) were coated overnight at 4° C. with PBS containing 10 μg/ml of anti-CD3 (OKT-3 Ortho Pharmaceutical, Raritan, N.J.) and washed once with cold phosphate buffer saline (PBS). Two million purified T-cells were resuspended in complete RPMI-1640 (RPMI) containing approximately 1140 μM of L-arginine (BioWhittaker, Walkersville, Md.) or in RPMI-1640 without L-arginine (Arg-free-RPMI) (GIBCO, Invitrogen, Grand Island, N.Y.) containing 100 ng/ml of anti-CD28 (Becton Dickinson, San Jose, Calif.) and added to plates. Control media included RPMI without L-glutamine or […]. Unstimulated T-cells were placed in the same culture conditions as controls. […]
To determine CD3ζ expression, purified T-cells were incubated for 15 min at 4° C. with anti-CD3-FITC or the isotype control (Beckman-Coulter, Miami, Fla.) at 1 μg of antibody/10^6 cells. […] Fluorescence analysis was done using a Coulter-EPICS flow cytometer (Beckman-Coulter, Miami, Fla.).

In the next test the target is CAT-2B (Homo sapiens, UniProt P52569). The settings on record: read-out: Km for L-Arg; cited from earlier work.
Sequence of CAT-2B (P52569 whole entry, species assumed): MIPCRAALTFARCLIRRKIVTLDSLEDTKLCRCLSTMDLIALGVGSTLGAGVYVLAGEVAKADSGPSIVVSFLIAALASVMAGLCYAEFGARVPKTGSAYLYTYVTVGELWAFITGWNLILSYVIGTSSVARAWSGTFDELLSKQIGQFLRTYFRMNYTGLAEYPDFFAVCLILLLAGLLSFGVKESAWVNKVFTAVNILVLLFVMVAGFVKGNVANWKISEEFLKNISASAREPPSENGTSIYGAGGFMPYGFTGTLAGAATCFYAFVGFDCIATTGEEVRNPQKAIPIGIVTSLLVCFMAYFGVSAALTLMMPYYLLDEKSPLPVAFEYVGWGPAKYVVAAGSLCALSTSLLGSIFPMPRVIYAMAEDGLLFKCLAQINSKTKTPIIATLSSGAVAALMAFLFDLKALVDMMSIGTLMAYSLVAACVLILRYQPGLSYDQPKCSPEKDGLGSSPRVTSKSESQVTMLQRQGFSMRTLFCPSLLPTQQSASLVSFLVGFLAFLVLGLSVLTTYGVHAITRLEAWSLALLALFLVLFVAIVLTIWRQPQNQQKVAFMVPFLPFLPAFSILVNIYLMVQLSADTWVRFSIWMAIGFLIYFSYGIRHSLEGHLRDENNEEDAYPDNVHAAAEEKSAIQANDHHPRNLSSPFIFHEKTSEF
A further test deals with ASE I. In words: Western blot for ASE I in PM cytoplasmic extracts. Type of test: cell-based, mice. Particulars: NOHA 100 μM, Nor-NOHA 50 μM. Here is the method:
Cytoplasmic extracts from PM, Jurkat cells or T lymphocytes were prepared as previously reported. Taheri, F., J. B. Ochoa, Z. Faghiri, K. Culotta, H. J. Park, M. S. Lan, A. H. Zea, and A. C. Ochoa. 2001. L-Arginine regulates the expression of the T-cell receptor zeta chain (CD3zeta) in Jurkat cells. Clin Cancer Res 7:958s-965s. Briefly, cells were resuspended in lysis buffer (50 mM HEPES, 150 mM NaCl, 5 mM EDTA, 1 mM NaOV4 and 0.5% Triton) containing 50 μg/ml of aprotinin, 50 μg/ml of leupeptin, 100 μg/ml of trypsin-chymotrypsin inhibitor and 2 mM PMSF. Lysates were centrifuged at 3000×g for 10 min at 4° C. Cytoplasmic extracts from Jurkat or T-cells were immunoblotted for CD3ζ and CD3ε. The expression ASE I, ASE II and iNOS was detected by immunoblot using PM extracts. GAPDH was used as housekeeping protein. Cytoplasmic extracts were electrophoresed in 12 or 8% Tris-Glycine gels (Novex, San Diego, Calif.), transferred to PVDF membranes and immunoblotted with the appropriate antibodies. The reactions were detected using the ECL kit (Amersham-Pharmacia).

The next test relates to H. pylori arginase. Particulars: McGee, manuscript in preparation; cited from earlier work.
The subject of test [2] is Jurkat cells. Put plainly: CD3ζ chain expression in Jurkat cells with H. pylori sonicate or proteins. The format is cell-based. The settings on record: NOHA 10 μg/ml; difference not statistically significant. How it is done:
Jurkat cells were cultured for 24 h in medium with the H. pylori sonicate at concentrations ranging from 1 μg/ml to 50 μg/ml. CagA (2 μg/ml) (Austral Biologicals; San Ramon, Calif.), VacA (4 μg/ml) (Austral), H. pylori urease A (2 μg/ml) (Austral), H. pylori urease B (2 μg/ml) (Austral) and E. coli LPS (500 ng/ml) (Sigma-Aldrich; St Louis, Mo.) were also used. Jurkat and T-cells were counted and stained with FITC-conjugated anti-human CD3 (Beckman-Coulter; Miami, Fla.) for 20 min in the dark. After washing with PBS the cells were stained for 8 min with phycoerythrin (PE)-conjugated anti-human CD3ζ (Beckman-Coulter; Miami, Fla.) in PBS containing 50 μg/ml of digitonin. The cells were washed twice in PBS and analyzed in an EPICS XL Coulter Flow Cytometer. The results compare the percentage of cells expressing CD3ζ as well as the mean fluorescence intensity.
[…] After addition of the sonicate plus NOHA or sonicate plus L-arginine mixture to the Jurkat cells, 1.0 μCi of ^3H-thymidine (NEN) was added per well, the cells were incubated at 37° C. for 18 h, harvested onto filters and counted in a β-counter (Packard).

Consider two molecules from US20040057926A1, “Modulation of the immune response through the manipulation of arginine levels” (LSU Medical Center, priority 2002, published 2004).

As a reminder, the Km is the substrate concentration at which the rate is half of its maximum. Consider `N=C(N)NCCC[C@H](N)C(=O)O` [L-arginine], for which the “L-Arg concentrations that cause the rapid decrease of CD3ζ chain” value in the test on Jurkat cells [1] (Jurkat cells, in vitro) is “below 40 μM”. Further, the “loss of CD3ζ on replenishing L-arginine in the tissue culture medium” value in the test on Jurkat cells [1] (L-arginine alone at 100 μM) is on record as “fully reversible”. Besides, the Michaelis constant (Km) on CAT-1 and at CAT-2B was 100 µM throughout. For the same molecule, the “re-expression of CD3ζ after addition of L-arginine to the culture media” value in the test on purified T-cells (L-arginine 1140 μM, T-cells stimulated in Arg-free-RPMI) is “rapid re-expression of CD3ζ”. In the test with purified T-cells (stimulated T-cells, in vitro), the “L-Arg concentrations that impair the re-expression of CD3ζ chain” value is listed as “below 40 μM”.
With `NC(=NCCC[C@H](N)C(=O)O)NO` [NOHA, NG-hydroxy-L-arginine], the “ASE I up regulation after IL-4+IL-13 stimulation” value with ASE I is “did not prevent ASE I up regulation”. The “inhibition of H. pylori arginase” value in the test with H. pylori arginase is “only partially inhibit H. pylori arginase”. For the same molecule, the “CD3ζ chain expression in Jurkat cells treated with H. pylori sonicate” value in the test on Jurkat cells [2] is given as “partially inhibited the drop in CD3ζ chain expression”.
